“And” between values parts separate entries of the source, which are not always exact repeats. Identical values can stand only once. Like-named read-outs stand apart in the source and are kept apart here.
Test: Tissue distribution of SHR9146 in mice after oral gavage of 40 mg/kg
Format: in vivo, ICR mice
Conditions: 40 mg/kg, 40 mg/kg oral gavage; for concentration at 1 h / concentration at 3 h / concentration at 6 h / concentration at 24 h: female, ICR, mouse, po
Method: ICR mice with body weight 16–26 g were supplied by Shanghai Lingchang Biotechnology Co., Ltd. (animal breeding license number SCXK (Shanghai) 2013-0018) and housed at Shanghai Institute of Materia Medica, Chinese Academy of Sciences [animal use license number SYXK (Shanghai) 2015-0027]. The mice used in this study were fasted overnight for 12 h but had free access to water. Food was supplied 4 h post-dose. All experiments in this study were conducted in accordance with the Guidelines for the Care and Use of Laboratory Animals of Shanghai Institute of Materia Medica, Chinese Academy of Sciences.
Another set of 30 mice were randomly assigned into five groups with equal numbers, males and females, for tissue distribution study with oral gavage at a single dose of 40 mg/kg at predetermined different time points: pre-dose and post dose at 1, 3, 6, and 24 h, respectively. The whole brain, heart, liver, spleen, lung, kidney, bladder, pancreas, testis, ovary, uterus, stomach, small intestine, adrenal gland, skin, skeletal muscle, thyroid gland, and abdominal fat tissues as well as the whole blood and plasma samples were harvested. Tissue samples were washed with 0.9% sodium chloride solution to remove the residual blood or contents, blotted on a filter paper, and stored at −70°C prior to the analysis.
Protein precipitation was selected for the pretreatment of both the plasma and the tissue homogenate prepared after thawing at room temperature, cut into pieces, and homogenized with a quintuple methanol–water mixture (1:1, v/v) for each tissue sample.
Briefly as follows, an aliquot of 25-μL plasma or tissue homogenate was spiked with 100 μL of internal standard solution (1 μg/mL for plasma, 0.2 μg/mL for tissue homogenate) and 300 μL of methanol added and vortex mixed for 60 s. The mixture was then centrifuged at 14,000 rpm at 4°C for 5.0 min, and the supernatant was diluted with methanol–water (4:1, v/v) in a ratio of 1:9 for the plasma or 1:1 for the tissue homogenate, and 5 μL of the resulting solution was injected for the LC-MS/MS analysis.
After oral administration of 40 mg/kg SHR9146, samples in different tissues at predetermined time points (pre-drug administration, post-drug administration at 1, 3, 6, and 24 h) were collected and prepared for the analysis. The drug concentrations of SHR9146 (μg/g or μg/mL) were determined for each mouse, and the mean and standard deviation were further obtained (Table S7).

[1] = kidney, Mean (n=3), read-out: SHR9146 concentration in Kidney
[2] = liver, Mean (n=3), read-out: SHR9146 concentration in Liver
[3] = lung, Mean (n=3), read-out: SHR9146 concentration in Lung
[4] = ovary, Mean (n=3), read-out: SHR9146 concentration in Ovary
[5] = pancreas, Mean (n=3), read-out: SHR9146 concentration in Pancreas
[6] = plasma, Mean (n=3), read-out: SHR9146 concentration in Plasma
[7] = skeletal muscle, Mean (n=3), read-out: SHR9146 concentration in Skeletal muscle
[8] = skin, Mean (n=3), read-out: SHR9146 concentration in Skin
[9] = small intestine, Mean (n=3), read-out: SHR9146 concentration in Small intestine
[10] = spleen, Mean (n=3), read-out: SHR9146 concentration in Spleen
[11] = stomach, Mean (n=3), read-out: SHR9146 concentration in Stomach
[12] = stomach, individual mice, read-out: SHR9146 concentration in Stomach
[13] = thyroid gland, Mean (n=3), read-out: SHR9146 concentration in thyroid gland
[14] = uterus, Mean (n=3), read-out: SHR9146 concentration in Uterus
[15] = whole blood, Mean (n=3), read-out: SHR9146 concentration in Whole blood

concentration at 1 h (kidney, 1 h, individual mice, read-out: SHR9146 concentration in Kidney): 13100 ng/g
concentration at 3 h [1]: 12700 ng/g
concentration at 6 h [1]: 1430 ng/g
concentration at 1 h (liver, 1 h, Mean (n=3), read-out: SHR9146 concentration in Liver): 24300 ng/g
concentration at 1 h (liver, 1 h, individual mice, read-out: SHR9146 concentration in Liver): 22800 ng/g
concentration at 3 h [2]: 19800 ng/g
concentration at 6 h [2]: 1950 ng/g
concentration at 24 h [2]: 37 ng/g
concentration at 24 h (liver, individual mice, read-out: SHR9146 concentration in Liver): 54 ng/g
concentration at 1 h (lung, 1 h, Mean (n=3), read-out: SHR9146 concentration in Lung): 16300 ng/g
concentration at 1 h (lung, 1 h, individual mice, read-out: SHR9146 concentration in Lung): 13600 ng/g
concentration at 3 h [3]: 25800 ng/g
concentration at 6 h [3]: 1380 ng/g
concentration at 24 h [3]: 165 ng/g
concentration at 24 h (lung, individual mice, read-out: SHR9146 concentration in Lung): 154 ng/g
concentration at 1 h (ovary, 1 h, Mean (n=3), read-out: SHR9146 concentration in Ovary): 18300 ng/g
concentration at 1 h (ovary, 1 h, individual mice, read-out: SHR9146 concentration in Ovary): 17000 ng/g
concentration at 3 h [4]: 12700 ng/g
concentration at 6 h [4]: 704 ng/g
concentration at 1 h (pancreas, 1 h, Mean (n=3), read-out: SHR9146 concentration in Pancreas): 18000 ng/g
concentration at 1 h (pancreas, 1 h, individual mice, read-out: SHR9146 concentration in Pancreas): 15900 ng/g
concentration at 3 h [5]: 12500 ng/g
concentration at 6 h [5]: 638 ng/g
concentration at 1 h (plasma, 1 h, Mean (n=3), read-out: SHR9146 concentration in Plasma): 13100 ng/mL
concentration at 1 h (plasma, 1 h, individual mice, read-out: SHR9146 concentration in Plasma): 11800 ng/mL
concentration at 3 h [6]: 9070 ng/mL
concentration at 6 h [6]: 471 ng/mL
concentration at 1 h (skeletal muscle, 1 h, Mean (n=3), read-out: SHR9146 concentration in Skeletal muscle): 7800 ng/g
concentration at 1 h (skeletal muscle, 1 h, individual mice, read-out: SHR9146 concentration in Skeletal muscle): 6440 ng/g
concentration at 3 h [7]: 5910 ng/g
concentration at 6 h [7]: 294 ng/g
concentration at 1 h (skin, 1 h, Mean (n=3), read-out: SHR9146 concentration in Skin): 11100 ng/g
concentration at 1 h (skin, 1 h, individual mice, read-out: SHR9146 concentration in Skin): 9600 ng/g
concentration at 3 h [8]: 7700 ng/g
concentration at 6 h [8]: 498 ng/g
concentration at 1 h (small intestine, 1 h, Mean (n=3), read-out: SHR9146 concentration in Small intestine): 21600 ng/g
concentration at 1 h (small intestine, 1 h, individual mice, read-out: SHR9146 concentration in Small intestine): 19000 ng/g
concentration at 3 h [9]: 16400 ng/g
concentration at 3 h (small intestine, individual mice, read-out: SHR9146 concentration in Small intestine): 14600 ng/g
concentration at 6 h [9]: 832 ng/g
concentration at 1 h (spleen, 1 h, Mean (n=3), read-out: SHR9146 concentration in Spleen): 6700 ng/g
concentration at 1 h (spleen, 1 h, individual mice, read-out: SHR9146 concentration in Spleen): 6190 ng/g
concentration at 3 h [10]: 4740 ng/g
concentration at 6 h [10]: 241 ng/g
concentration at 1 h (stomach, 1 h, Mean (n=3), read-out: SHR9146 concentration in Stomach): 27800 ng/g
concentration at 1 h (stomach, 1 h, individual mice, read-out: SHR9146 concentration in Stomach): 27400 ng/g
concentration at 3 h [11]: 27200 ng/g
concentration at 3 h [12]: 29000 ng/g
concentration at 6 h [11]: 3870 ng/g
concentration at 24 h [11]: 848 ng/g
concentration at 24 h [12]: 782 ng/g
concentration at 1 h (thyroid gland, 1 h, Mean (n=3), read-out: SHR9146 concentration in thyroid gland): 9550 ng/g
concentration at 1 h (thyroid gland, 1 h, individual mice, read-out: SHR9146 concentration in thyroid gland): 8340 ng/g
concentration at 3 h [13]: 6940 ng/g
concentration at 6 h [13]: 378 ng/g
concentration at 1 h (uterus, 1 h, Mean (n=3), read-out: SHR9146 concentration in Uterus): 10700 ng/g
concentration at 1 h (uterus, 1 h, individual mice, read-out: SHR9146 concentration in Uterus): 9740 ng/g
concentration at 3 h [14]: 6040 ng/g
concentration at 6 h [14]: 363 ng/g
concentration at 1 h (whole blood, 1 h, Mean (n=3), read-out: SHR9146 concentration in Whole blood): 8660 ng/mL
concentration at 1 h (whole blood, 1 h, individual mice, read-out: SHR9146 concentration in Whole blood): 7360 ng/mL
concentration at 3 h [15]: 6190 ng/mL
concentration at 6 h [15]: 298 ng/mL
SHR9146 concentration in Bladder (male, 1 h, individual mice): 13.766 µg/g and 11.095 µg/g
SHR9146 concentration in Kidney (male, 1 h, individual mice): 15.501 µg/g and 7.908 µg/g
SHR9146 concentration in Liver (male, 1 h, individual mice): 23.893 µg/g and 14.099 µg/g
SHR9146 concentration in Lung (male, 1 h, individual mice): 16.090 µg/g and 8.210 µg/g
SMILES: OCCn1cc(-c2ccc(N3CCC([C@H]4c5c(F)cccc5-c5cncn54)CC3)cc2)cn1 [SHR9146]

Source: paper PMC10410440, “Preclinical PK investigation of a novel IDO1/TDO dual inhibitor—SHR9146 in mouse plasma and tissues by LC-MS/MS” (Frontiers in Oncology, 2023)
